From patent US9326986B2, “Quinazolinone, quinolone and related analogs as sirtuin modulators” (GLAXOSMITHKLINE LLC, priority 2008, dated 2016)

Biological target: T1, SIRT1 (Homo sapiens, UniProt Q96EB6)
T1 sequence (Q96EB6 1-747): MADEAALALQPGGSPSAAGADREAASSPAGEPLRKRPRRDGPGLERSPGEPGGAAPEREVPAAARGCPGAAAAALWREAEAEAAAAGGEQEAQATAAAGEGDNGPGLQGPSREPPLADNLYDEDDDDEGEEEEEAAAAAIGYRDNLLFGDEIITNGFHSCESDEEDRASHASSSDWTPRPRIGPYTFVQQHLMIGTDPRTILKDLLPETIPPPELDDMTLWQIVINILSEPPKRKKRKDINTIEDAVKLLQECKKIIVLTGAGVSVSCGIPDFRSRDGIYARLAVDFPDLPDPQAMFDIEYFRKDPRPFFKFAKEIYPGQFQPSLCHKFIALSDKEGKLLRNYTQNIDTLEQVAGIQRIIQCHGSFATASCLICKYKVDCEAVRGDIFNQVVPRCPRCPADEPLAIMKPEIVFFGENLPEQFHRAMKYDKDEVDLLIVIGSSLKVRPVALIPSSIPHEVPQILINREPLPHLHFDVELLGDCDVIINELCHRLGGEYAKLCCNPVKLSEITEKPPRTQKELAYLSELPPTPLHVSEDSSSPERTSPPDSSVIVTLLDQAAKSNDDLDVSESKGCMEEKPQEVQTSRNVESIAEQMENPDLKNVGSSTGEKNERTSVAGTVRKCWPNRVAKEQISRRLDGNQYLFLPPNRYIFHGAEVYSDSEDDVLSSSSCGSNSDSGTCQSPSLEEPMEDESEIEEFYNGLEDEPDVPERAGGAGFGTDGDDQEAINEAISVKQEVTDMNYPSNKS
Assay: Mass spectrometry based assay to identify modulators of SIRT1 activity (deacetylation of p53-based acetylated peptide)
Type: biochemical
Conditions: 10 nM SIRT1, 0.5 μM peptide substrate, 120 μM βNAD+, 25 minutes at 25° C.; for EC1.5 μM: SIRT1 activation
Source text: A mass spectrometry based assay was used to identify modulators of SIRT1 activity. The mass spectrometry based assay utilizes a peptide having 20 amino acid residues as follows: Ac-EE-K(biotin)-GQSTSSHSK(Ac)NleSTEG-K(5TMR)-EE-NH2 (SEQ ID NO: 1) wherein K(Ac) is an acetylated lysine residue and Nle is a norleucine. The peptide is labeled with the fluorophore 5TMR (excitation 540 nm/emission 580 nm) at the C-terminus. The sequence of the peptide substrate is based on p53 with several modifications. In addition, the methionine residue naturally present in the sequence was replaced with the norleucine because the methionine may be susceptible to oxidation during synthesis and purification.
The mass spectrometry assay is conducted as follows: 0.5 μM peptide substrate and 120 μM βNAD^+ is incubated with 10 nM SIRT1 for 25 minutes at 25° C. in a reaction buffer (50 mM Tris-acetate pH 8, 137 mM NaCl, 2.7 mM KCl, 1 mM MgCl2, 5 mM DTT, 0.05% BSA). Test compounds may be added to the reaction as described above. […] After the 25 minute incubation with SIRT1, 10 μL of 10% formic acid is added to stop the reaction. Reactions are sealed and frozen for later mass spec analysis. Determination of the mass of the substrate peptide allows for precise determination of the degree of acetylation (i.e. starting material) as compared to deacetylated peptide (product).
A control for inhibition of sirtuin activity is conducted by adding 1 μL of 500 mM nicotinamide as a negative control at the start of the reaction (e.g., permits determination of maximum sirtuin inhibition). A control for activation of sirtuin activity is conducted using 10 nM of sirtuin protein, with 1 μL of DMSO in place of compound, to determine the amount of deacetylation of the substrate at a given timepoint within the linear range of the assay. This timepoint is the same as that used for test compounds and, within the linear range, the endpoint represents a change in velocity.
For the above assay, SIRT1 protein was expressed and purified as follows. […] The protein was expressed by induction with 1 mM IPTG as an N-terminal His-tag fusion protein at 18° C. overnight and harvested at 30,000×g. Cells were lysed with lysozyme in lysis buffer (50 mM Tris-HCl, 2 mM Tris[2-carboxyethyl]phosphine (TCEP), 10 μM ZnCl2, 200 mM NaCl) and further treated with sonication for 10 min for complete lysis. The protein was purified over a Ni-NTA column (Amersham) and fractions containing pure protein were pooled, concentrated and run over a sizing column (Sephadex S200 26/60 global). The peak containing soluble protein was collected and run on an Ion-exchange column (MonoQ). Gradient elution (200 mM-500 mM NaCl) yielded pure protein. This protein was concentrated and dialyzed against dialysis buffer (20 mM Tris-HCl, 2 mM TCEP) overnight. The protein was aliquoted and frozen at −80° C. until further use.
Sirtuin modulating compounds that activated SIRT1 were identified using the assay described above and are shown below in Tables 1 and 2. The EC1.5 values for the activating compounds are represented by A (EC1.5<1.0 μM), B (EC1.5 1-25 μM), C (EC1.5>25 μM). The percent maximum fold activation is represented by A (Fold activation>200%) or B (Fold Activation<200%).

Compound | % Fold Act. (percent maximum fold activation) | EC1.5 μM
Cn1c(-c2cccc(CN3CCCC3)c2)nc2c(C(=O)Nc3ccccn3)cccc2c1=O [Compound 276] | B (Fold Activation<200%) | B (EC1.5 1-25 μM)
Cn1c(-c2cccc(C(F)(F)F)c2)nc2c(NC(=O)c3ncccn3)cccc2c1=O [Compound 249] | A (Fold activation>200%) | A (EC1.5<1.0 μM)
Cn1c(-c2ccc(Cl)cc2)nc2c(C(=O)Nc3ccccn3)cccc2c1=O [Compound 244] | B (Fold Activation<200%) | C (EC1.5>25 μM)
Cn1c(-c2cccc(OC(F)F)c2)nc2c(C(=O)Nc3ccccn3)cccc2c1=O [Compound 326] | A (Fold activation>200%) | A (EC1.5<1.0 μM)
Cn1c(-c2ccncn2)nc2c(NC(=O)c3cnccn3)cccc2c1=O [Compound 280] | B (Fold Activation<200%) | C (EC1.5>25 μM)
Cn1c(-c2cccc(C(F)(F)F)c2)nc2c(NC(=O)c3cccc(OCC(O)CO)n3)cccc2c1=O (centres unmarked) [Compound 335] | A (Fold activation>200%) | A (EC1.5<1.0 μM)
Cn1ccc(C(=O)Nc2cccc3c(=O)n(C)c(-c4cccc(C(F)(F)F)c4)nc23)n1 [Compound 247] | B (Fold Activation<200%) | B (EC1.5 1-25 μM)
Cn1nccc1-c1nc2c(C(=O)Nc3ccccn3)cccc2c(=O)n1C [Compound 264] | B (Fold Activation<200%) | C (EC1.5>25 μM)
Cn1c(-c2cccc(C(F)(F)F)c2)nc2c(C(=O)Nc3ccc(OCC(O)CO)cc3)cccc2c1=O (centres unmarked) [Compound 273] | A (Fold activation>200%) | A (EC1.5<1.0 μM)
Cn1c(-c2cccc(C(F)(F)F)c2)nc2c(C(=O)Nc3ccnc(CN4CCCC4)n3)cccc2c1=O [Compound 359] | A (Fold activation>200%) | B (EC1.5 1-25 μM)
Cc1cc(NC(=O)c2cccc3c(=O)n(C)c(-c4cccc(C(F)(F)F)c4)nc23)n(C)n1 [Compound 295] | B (Fold Activation<200%) | C (EC1.5>25 μM)

Results, then the molecule that gave them:

% Fold Act. (percent maximum fold activation) | EC1.5 μM | Compound
A (Fold activation>200%) | A (EC1.5<1.0 μM) | O=C(Nc1nccs1)c1cncc2c(=O)cc(-c3cccc(C(F)(F)F)c3)[nH]c12 [Compound 449, 4-oxo-N-(thiazol-2-yl)-2-(3-(trifluoromethyl)phenyl)-1,4-dihydro-1,6-naphthyridine-8-carboxamide]
A (Fold activation>200%) | A (EC1.5<1.0 μM) | O=C(Nc1cccc2c(=O)cc(-c3cccc(C(F)(F)F)c3)[nH]c12)c1cccc(N2CCOCC2)n1 [Compound 425]
B (Fold Activation<200%) | C (EC1.5>25 μM) | O=C(Nc1cccc2c(=O)[nH]c(-c3cccc(C(F)(F)F)c3)nc12)c1cnccn1 [Compound 231]
A (Fold activation>200%) | A (EC1.5<1.0 μM) | O=C(Nc1ccncn1)c1cccc2c(=O)cc(-c3cccc(C(F)(F)F)c3)[nH]c12 [Compound 415]
A (Fold activation>200%) | A (EC1.5<1.0 μM) | O=C(Nc1cnccn1)c1cccc2c(=O)cc(-c3cccc(C(F)F)c3)[nH]c12 [Compound 432]
A (Fold activation>200%) | A (EC1.5<1.0 μM) | O=C(Nc1cccc2c(=O)cc(-c3cccc(Cl)c3)[nH]c12)c1cnccn1 [Compound 447]
A (Fold activation>200%) | A (EC1.5<1.0 μM) | O=C(Nc1cccc2c(=O)cc(-c3cccc(C(F)(F)F)c3)[nH]c12)c1cccnc1 [Compound 419]
A (Fold activation>200%) | A (EC1.5<1.0 μM) | Cn1c(-c2cccc(C(F)(F)F)c2)nc2c(C(=O)Nc3ccnc(N4CCOCC4)c3)cccc2c1=O [Compound 304]
